Measured values taken from PubChem BioAssay AID2060493 (Molecular Pharmacology Branch, DTP, NCI, 2025).
One block for each compound: values may come before it.

Tested on: 616215-338-R-J1-PDC tumor spheroids, viability
Assay: Anticancer human tumor 616215-338-R-J1-PDC patient-derived colon adenocarcinoma cell line growth inhibition [GQUAD]
Conditions: spheroids with HUVEC and MSC; for IC50: curve of first compound; for viability, T/C: stronger effect = lower value
Outline: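 Viability of tumor cells grown as complex spheroids with endothelial and stromal cells, exposed to drug combinations. Top concentration at or near clinical Cmax (else 10 microM), diluted in half-log increments.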

[1] = second compound 0.0316 µM, first compound 0.0316 µM
[2] = second compound 0.0316 µM, first compound 0.316 µM
[3] = second compound 0.1 µM, first compound 0.0316 µM
[4] = second compound 0.1 µM, first compound 0.316 µM
[5] = second compound 0.316 µM, first compound 0.0316 µM
[6] = second compound 0.316 µM, first compound 0.316 µM
[7] = second compound 1 µM, first compound 0.0316 µM
[8] = second compound 1 µM, first compound 0.316 µM
[9] = second compound 3.16 µM, first compound 0.0316 µM
[10] = second compound 3.16 µM, first compound 0.316 µM
[11] = second compound 10 µM, first compound 0.0316 µM
[12] = second compound 10 µM, first compound 0.316 µM
[13] = second compound 0.0316 µM, first compound 0.1 µM
[14] = second compound 0.0316 µM, first compound 1 µM
[15] = second compound 0.0316 µM, first compound 3.16 µM
[16] = second compound 0.0316 µM, first compound 10 µM
[17] = second compound 0.1 µM, first compound 0.1 µM
[18] = second compound 0.1 µM, first compound 1 µM
[19] = second compound 0.1 µM, first compound 3.16 µM
[20] = second compound 0.1 µM, first compound 10 µM
[21] = second compound 0.316 µM, first compound 0.1 µM
[22] = second compound 0.316 µM, first compound 1 µM
[23] = second compound 0.316 µM, first compound 3.16 µM
[24] = second compound 0.316 µM, first compound 10 µM
[25] = second compound 1 µM, first compound 0.1 µM
[26] = second compound 1 µM, first compound 1 µM
[27] = second compound 1 µM, first compound 3.16 µM
[28] = second compound 1 µM, first compound 10 µM
[29] = second compound 3.16 µM, first compound 0.1 µM
[30] = second compound 3.16 µM, first compound 1 µM
[31] = second compound 3.16 µM, first compound 3.16 µM
[32] = second compound 3.16 µM, first compound 10 µM
[33] = second compound 10 µM, first compound 0.1 µM
[34] = second compound 10 µM, first compound 1 µM
[35] = second compound 10 µM, first compound 3.16 µM
[36] = second compound 10 µM, first compound 10 µM
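Further: spheroids exposed to agents for 7 days before readout.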
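Wherever viability, T/C is given: percent viability relative to DMSO vehicle control wells taken as 100%.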

- IC50 (second compound 0.0316 µM): 274 nM
- IC50 (second compound 0.1 µM): 142 nM
- IC50 (second compound 0.316 µM): < 0.999 nM
- IC50 (second compound 1 µM): < 0.999 nM
- IC50 (second compound 3.16 µM): < 0.999 nM
- IC50 (second compound 10 µM): < 0.999 nM
SMILES: CC[C@@]1(O)C(=O)OCc2c1cc1n(c2=O)Cc2cc3c(CN(C)C)c(O)ccc3nc2-1 + Cc1cnc(CNC(=O)c2c(=O)c3ccc(N4CCCN(C)CC4)nc3n3c2sc2ccccc23)cn1
- viability, T/C (second compound 0.0316 µM, first compound 0.000999 µM): 116%
- viability, T/C (second compound 0.0316 µM, first compound 0.00316 µM): 102%
- viability, T/C (second compound 0.0316 µM, first compound 0.00999 µM): 92.5%
- viability, T/C [1]: 94.9%
- viability, T/C (second compound 0.0316 µM, first compound 0.0999 µM): 87%
- viability, T/C [2]: 43.7%
- viability, T/C (second compound 0.1 µM, first compound 0.000999 µM): 81.5%
- viability, T/C (second compound 0.1 µM, first compound 0.00316 µM): 68.1%
- viability, T/C (second compound 0.1 µM, first compound 0.00999 µM): 64.2%
- viability, T/C [3]: 74.8%
- viability, T/C (second compound 0.1 µM, first compound 0.0999 µM): 54.1%
- viability, T/C [4]: 35.4%
- viability, T/C (second compound 0.316 µM, first compound 0.000999 µM): 38.5%
- viability, T/C (second compound 0.316 µM, first compound 0.00316 µM): 45.3%
- viability, T/C (second compound 0.316 µM, first compound 0.00999 µM): 39.2%
- viability, T/C [5]: 40.5%
- viability, T/C (second compound 0.316 µM, first compound 0.0999 µM): 53.4%
- viability, T/C [6]: 40.2%
- viability, T/C (second compound 1 µM, first compound 0.000999 µM): 36.9%
- viability, T/C (second compound 1 µM, first compound 0.00316 µM): 38.4%
- viability, T/C (second compound 1 µM, first compound 0.00999 µM): 32.4%
- viability, T/C [7]: 27.7%
- viability, T/C (second compound 1 µM, first compound 0.0999 µM): 24.9%
- viability, T/C [8]: 25.3%
- viability, T/C (second compound 3.16 µM, first compound 0.000999 µM): 37.1%
- viability, T/C (second compound 3.16 µM, first compound 0.00316 µM): 36.5%
- viability, T/C (second compound 3.16 µM, first compound 0.00999 µM): 31.6%
- viability, T/C [9]: 34.2%
- viability, T/C (second compound 3.16 µM, first compound 0.0999 µM): 29.3%
- viability, T/C [10]: 18.5%
- viability, T/C (second compound 10 µM, first compound 0.000999 µM): 31.9%
- viability, T/C (second compound 10 µM, first compound 0.00316 µM): 25%
- viability, T/C (second compound 10 µM, first compound 0.00999 µM): 42.2%
- viability, T/C [11]: 24.2%
- viability, T/C (second compound 10 µM, first compound 0.0999 µM): 25.3%
- viability, T/C [12]: 16.1%

SMILES: O=c1[nH]cc(F)c(=O)[nH]1 + Cc1[nH]c2ccc(F)cc2c1-c1nc2c3cccnc3c3ncccc3c2[nH]1
- IC50 (second compound 0.0316 µM): 685 nM
- IC50 (second compound 0.1 µM): 380 nM
- IC50 (second compound 0.316 µM): 592 nM
- IC50 (second compound 1 µM): 729 nM
- IC50 (second compound 3.16 µM): 342 nM
- IC50 (second compound 10 µM): 289 nM
- viability, T/C [1]: 97.7%
- viability, T/C [13]: 96.9%
- viability, T/C [2]: 64.3%
- viability, T/C [14]: 43%
- viability, T/C [15]: 48.1%
- viability, T/C [16]: 37%
- viability, T/C [3]: 102%
- viability, T/C [17]: 94.4%
- viability, T/C [4]: 51.8%
- viability, T/C [18]: 41.3%
- viability, T/C [19]: 36.3%
- viability, T/C [20]: 35.1%
- viability, T/C [5]: 99.6%
- viability, T/C [21]: 92.6%
- viability, T/C [6]: 57.1%
- viability, T/C [22]: 47%
- viability, T/C [23]: 37%
- viability, T/C [24]: 34.2%
- viability, T/C [7]: 96%
- viability, T/C [25]: 94.8%
- viability, T/C [8]: 65.1%
- viability, T/C [26]: 46.1%
- viability, T/C [27]: 39.2%
- viability, T/C [28]: 43.6%
- viability, T/C [9]: 98.3%
- viability, T/C [29]: 82.9%
- viability, T/C [10]: 51.5%
- viability, T/C [30]: 37.6%
- viability, T/C [31]: 38.8%
- viability, T/C [32]: 42.7%
- viability, T/C [11]: 102%
- viability, T/C [33]: 83.8%
- viability, T/C [12]: 46.7%
- viability, T/C [34]: 38.9%
- viability, T/C [35]: 34.3%
- viability, T/C [36]: 36.2%

SMILES: O=C(NO)c1cnc(N2CCN(S(=O)(=O)c3ccc4ccccc4c3)CC2)nc1 + Cc1[nH]c2ccc(F)cc2c1-c1nc2c3cccnc3c3ncccc3c2[nH]1
- IC50 (second compound 0.0316 µM): 406 nM
- IC50 (second compound 0.1 µM): 343 nM
- IC50 (second compound 0.316 µM): 466 nM
- IC50 (second compound 1 µM): 369 nM
- IC50 (second compound 3.16 µM): 324 nM
- IC50 (second compound 10 µM): 422 nM
- viability, T/C [1]: 96.2%
- viability, T/C [13]: 94%
- viability, T/C [2]: 62%
- viability, T/C [14]: 6.64%
- viability, T/C [15]: 0.1%
- viability, T/C [16]: 0.12%
- viability, T/C [3]: 98.6%
- viability, T/C [17]: 94.8%
- viability, T/C [4]: 53.8%
- viability, T/C [18]: 1.07%
- viability, T/C [19]: 0.04%
- viability, T/C [20]: 0.07%
- viability, T/C [5]: 117%
- viability, T/C [21]: 110%
- viability, T/C [6]: 74.5%
- viability, T/C [22]: 1.02%
- viability, T/C [23]: 0.02%
- viability, T/C [24]: 0.05%
- viability, T/C [7]: 103%
- viability, T/C [25]: 94.6%
- viability, T/C [8]: 57.6%
- viability, T/C [26]: 4.76%
- viability, T/C [27]: 0.03%
- viability, T/C [28]: 0.06%
- viability, T/C [9]: 104%
- viability, T/C [29]: 96.9%
- viability, T/C [10]: 51.4%
- viability, T/C [30]: 2.81%
- viability, T/C [31]: 0.06%
- viability, T/C [32]: 0.08%
- viability, T/C [11]: 103%
- viability, T/C [33]: 94.6%
- viability, T/C [12]: 65.7%
- viability, T/C [34]: 3.03%
- viability, T/C [35]: 0.15%
- viability, T/C [36]: 0.63%
